Reference: patent US7101878B1 (Agouron Pharmaceuticals, Inc., priority 1998, dated 2006)

biological target: T1, human GnRH receptor (Homo sapiens, UniProt P30968); assay: Radioligand binding, 125I-GnRH-A displacement, membranes of HEK 293 cells with human GnRH receptor; details: read-out: hGnRH IC50
T1 construct: expressed in transfected cells; host or cells: HEK 293 (hGnRH-R/293, from Dr. Stuart Sealfon)
T1 sequence (P30968 1-328): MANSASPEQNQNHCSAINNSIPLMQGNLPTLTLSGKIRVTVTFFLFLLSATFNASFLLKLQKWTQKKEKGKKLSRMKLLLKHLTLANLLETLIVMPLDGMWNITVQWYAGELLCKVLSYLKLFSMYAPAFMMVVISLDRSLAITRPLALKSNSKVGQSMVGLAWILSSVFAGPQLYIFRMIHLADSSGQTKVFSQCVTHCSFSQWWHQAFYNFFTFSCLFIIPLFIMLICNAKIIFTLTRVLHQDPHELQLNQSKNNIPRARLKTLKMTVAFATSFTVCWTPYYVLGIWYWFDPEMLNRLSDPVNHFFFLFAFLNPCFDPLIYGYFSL
Summary of the method: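 After filtration and PBS washes, bound radioactivity was counted by scintillation and IC50 derived. Identical conditions applied for non-human receptors.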

IC50 [nM] | Compound
680 | Cc1cc2c(cc1Cc1ccc(C(=O)NCCc3cccc(F)c3)o1)C(C)(C)CCC2(C)C [Compound 54]
570 | Cc1cc2c(cc1Cc1ccc(C(=O)NCCc3ccccc3Cl)o1)C(C)(C)CCC2(C)C [Compound 55]
830 | Cc1cc2c(cc1Cc1ccc(C(=O)NC[C@H]3CCCO3)o1)C(C)(C)CCC2(C)C [Compound 57]
205 | Cc1cc2c(cc1Cc1ccc(C(=O)NC[C@@H]3CCCO3)o1)C(C)(C)CCC2(C)C [Compound 58]
980 | Cc1cc2c(cc1Cc1ccc(C(=O)NCC3CN(Cc4ccccc4)CCO3)o1)C(C)(C)CCC2(C)C (stereo not drawn) [Compound 59]
4200 | Cc1cnc(CNC(=O)c2ccc(Cc3ccc4c(c3)C(C)(C)CCC4(C)C)o2)cn1 [Compound 60]
760 | COc1cccc(C)c1NC(=O)c1ccc(Cc2cc3c(cc2C)C(C)(C)CCC3(C)C)o1 [Compound 61]
> 10000 | Cc1cc2c(cc1Cc1ccc(C(=O)Nc3ccc(OCc4ccccc4)c(OCc4ccccc4)c3)o1)C(C)(C)CCC2(C)C [Compound 62]
2500 | Cc1cc2c(cc1Cc1ccc(C(=O)NCCNc3nccc(NCC4CCCO4)n3)o1)C(C)(C)CCC2(C)C (stereo not drawn) [Compound 63]
710 | Cc1cc2c(cc1Cc1ccc(C(=O)NCCSCCCc3ccc(CN(C)C)o3)o1)C(C)(C)CCC2(C)C [Compound 65]
3500 | Cc1cc2c(cc1Cc1ccc(C(=O)NCc3cccc(-c4ccccc4)c3)o1)C(C)(C)CCC2(C)C [Compound 66]
1410 | Cc1cc2c(cc1Cc1ccc(C(=O)NCCCCNc3nccc(NCC4CCCO4)n3)o1)C(C)(C)CCC2(C)C (stereo not drawn) [Compound 69]
2000 | COc1cc(OC)nc(NCC2CCC(CNC(=O)c3ccc(Cc4cc5c(cc4C)C(C)(C)CCC5(C)C)o3)CC2)n1 (stereo not drawn) [Compound 71]
1100 | Cc1cc2c(cc1Cc1ccc(C(=O)Nc3cccc(CO)c3)o1)C(C)(C)CCC2(C)C [Compound 121]
510 | Cc1ccc([C@H](C)NC(=O)c2ccc(Cc3cc4c(cc3C)C(C)(C)CCC4(C)C)o2)cc1 [Compound 123]
600 | COC(CNC(=O)c1ccc(Cc2cc3c(cc2C)C(C)(C)CCC3(C)C)o1)OC [Compound 131]
640 | CCCOCCNC(=O)c1ccc(Cc2cc3c(cc2C)C(C)(C)CCC3(C)C)o1 [Compound 132]
490 | Cc1cc2c(cc1Cc1ccc(C(=O)NCCC3OCCO3)o1)C(C)(C)CCC2(C)C [Compound 133]
1440 | CCN(CC)CCOC(=O)c1ccc(NC(=O)c2ccc(Cc3cc4c(cc3C)C(C)(C)CCC4(C)C)o2)cc1 [Compound 135]
3000 | Cc1cc2c(cc1Cc1ccc(C(=O)NCc3cccc(CNc4ncnc5scc(C)c45)c3)o1)C(C)(C)CCC2(C)C [Compound 142]
1870 | Cc1cc2c(cc1Cc1ccc(C(=O)NCc3cccc(CNc4nccc(C(F)(F)F)n4)c3)o1)C(C)(C)CCC2(C)C [Compound 143]
230 | Cc1cc(NCc2cccc(CNC(=O)c3ccc(Cc4cc5c(cc4C)C(C)(C)CCC5(C)C)o3)c2)nc(N)n1 [Compound 144]
200 | Cc1cc2c(cc1Cc1ccc(C(=O)NCc3cccc(CNc4cc(Cl)nc(N)n4)c3)o1)C(C)(C)CCC2(C)C [Compound 145]
> 10000 | COc1cccc(OC)c1NC(=O)c1ccc(Cc2cc3c(cc2C)C(C)(C)CCC3(C)C)s1 [Compound 146]
360 | Cc1cc2c(cc1Cc1ccc(C(=O)NCc3cccc(CNc4ncnc5c(C)csc45)c3)o1)C(C)(C)CCC2(C)C [Compound 149]
700 | Cc1cc2c(cc1Cc1ccc(C(=O)NC3CCC(Nc4nccc(NCC5CCCO5)n4)CC3)o1)C(C)(C)CCC2(C)C (stereo not drawn) [Compound 152]

IC50 [nM] | Compound
620 | Cc1cc2c(cc1Cc1ccc(C(=O)NCc3cccc(CNc4ncc(F)c(N)n4)c3)o1)C(C)(C)CCC2(C)C [Compound 157]
1090 | COC(=O)c1cc(C)nc(NCc2cccc(CNC(=O)c3ccc(Cc4cc5c(cc4C)C(C)(C)CCC5(C)C)o3)c2)n1 [Compound 158]
390 | COc1ccccc1NC(=O)c1ccc(Cc2cc3c(cc2C)C(C)(C)CCC3(C)C)o1 [Compound 160]
300 | CSc1ccccc1NC(=O)c1ccc(Cc2cc3c(cc2C)C(C)(C)CCC3(C)C)o1 [Compound 161]
> 10000 | Cc1cc2c(cc1Cc1ccc(C(=O)NCC(=O)O)o1)C(C)(C)CCC2(C)C [Compound 162]
1960 | Cc1ncc(CNC(=O)c2ccc(Cc3cc4c(cc3C)C(C)(C)CCC4(C)C)o2)c(N)n1 [Compound 163]
1970 | COC(=O)CNC(=O)c1ccc(Cc2cc3c(cc2C)C(C)(C)CCC3(C)C)o1 [Compound 164]
> 10000 | Cc1cc2c(cc1Cc1ccc(C(=O)NCc3ccc4c(c3)C(C)(C)CCC4(C)C)o1)C(C)(C)CCC2(C)C [Compound 165]
260 | Cc1cc2c(cc1Cc1ccc(C(=O)NCc3ccc(CN(C)C)cc3)o1)C(C)(C)CCC2(C)C [Compound 166]
7640 | CNc1ccccc1NC(=O)c1ccc(Cc2cc3c(cc2C)C(C)(C)CCC3(C)C)o1 [Compound 167]
1140 | COc1cc(OC)c(NC(=O)c2ccc(Cc3cc4c(cc3C(C)C)C(C)(C)CCC4(C)C)o2)c(OC)c1 [Compound 171]
3200 | COc1cc(OC)c(CNC(=O)c2ccc(Cc3cc4c(cc3C)C(C)(C)CCC4(C)C)o2)c(OC)c1 [Compound 172]
2800 | COc1cc(OC)c([N+](=O)[O-])c(NC(=O)c2ccc(Cc3cc4c(cc3C)C(C)(C)CCC4(C)C)o2)c1[N+](=O)[O-] [Compound 173]
> 10000 | Cc1cc2c(cc1Cc1ccc(C(=O)NC3O[C@H](COC(=O)C(C)(C)C)[C@H](OC(=O)C(C)(C)C)[C@H](NC(=O)C(C)(C)C)[C@H]3OC(=O)C(C)(C)C)o1)C(C)(C)CCC2(C)C (stereo partly drawn) [Compound 175]
185 | Cc1cc2c(cc1Cc1ccc(C(=O)NC[C@H]3CC[C@H](CNc4ccnc(NC[C@H]5CCCO5)n4)CC3)o1)C(C)(C)CCC2(C)C [Compound 178]
190 | COc1cc(NC(=O)c2ccc(Cc3cc4c(cc3C)C(C)(C)CCC4(C)C)o2)cc(OC)c1 [Compound 179]
350 | Cc1cc2c(cc1Cc1ccc(C(=O)NCc3cccc(CNc4ncnc5[nH]ccc45)c3)o1)C(C)(C)CCC2(C)C [Compound 180]
560 | COc1cc(OC)c(NC(=O)c2ccc(Cc3c(C)c(C)c4c(c3C)C=CC(C)(C)O4)o2)c(OC)c1 [Compound 184]
7310 | COc1ccc(OC)c(Cc2ccc(C(=O)Nc3c(OC)cc(OC)cc3OC)o2)c1 [Compound 186]
9000 | COC(=O)N1CCC(C)(C)c2cc(OC)cc(Cc3ccc(C(=O)Nc4c(OC)cc(OC)cc4OC)o3)c21 [Compound 187]
940 | Cc1cc2c(cc1Cc1ccc(C(=O)Nc3c(O)cccc3O)o1)C(C)(C)CCC2(C)C [Compound 189]
420 | COc1cc(OC)c(NC(=O)c2ccc(C(=O)c3cc4c(cc3C)C(C)(C)CCC4(C)C)o2)c(OC)c1 [Compound 190]
4240 | Cc1cc(C)c2ccc(NC(=O)c3ccc(Cc4cc5c(cc4C)C(C)(C)CCC5(C)C)o3)nc2n1 [Compound 191]
235 | CCOc1cccc(O)c1NC(=O)c1ccc(Cc2cc3c(cc2C)C(C)(C)CCC3(C)C)o1 [Compound 192]
> 10000 | Cc1cc2c(cc1Cc1ccc(C(=O)Nc3c(O)cccc3OC(=O)c3ccc(Cc4cc5c(cc4C)C(C)(C)CCC5(C)C)o3)o1)C(C)(C)CCC2(C)C [Compound 193]
